The assay concerns the target T1, human neurotrypsin (Homo sapiens, UniProt P56730).
T1 sequence (P56730 21-875): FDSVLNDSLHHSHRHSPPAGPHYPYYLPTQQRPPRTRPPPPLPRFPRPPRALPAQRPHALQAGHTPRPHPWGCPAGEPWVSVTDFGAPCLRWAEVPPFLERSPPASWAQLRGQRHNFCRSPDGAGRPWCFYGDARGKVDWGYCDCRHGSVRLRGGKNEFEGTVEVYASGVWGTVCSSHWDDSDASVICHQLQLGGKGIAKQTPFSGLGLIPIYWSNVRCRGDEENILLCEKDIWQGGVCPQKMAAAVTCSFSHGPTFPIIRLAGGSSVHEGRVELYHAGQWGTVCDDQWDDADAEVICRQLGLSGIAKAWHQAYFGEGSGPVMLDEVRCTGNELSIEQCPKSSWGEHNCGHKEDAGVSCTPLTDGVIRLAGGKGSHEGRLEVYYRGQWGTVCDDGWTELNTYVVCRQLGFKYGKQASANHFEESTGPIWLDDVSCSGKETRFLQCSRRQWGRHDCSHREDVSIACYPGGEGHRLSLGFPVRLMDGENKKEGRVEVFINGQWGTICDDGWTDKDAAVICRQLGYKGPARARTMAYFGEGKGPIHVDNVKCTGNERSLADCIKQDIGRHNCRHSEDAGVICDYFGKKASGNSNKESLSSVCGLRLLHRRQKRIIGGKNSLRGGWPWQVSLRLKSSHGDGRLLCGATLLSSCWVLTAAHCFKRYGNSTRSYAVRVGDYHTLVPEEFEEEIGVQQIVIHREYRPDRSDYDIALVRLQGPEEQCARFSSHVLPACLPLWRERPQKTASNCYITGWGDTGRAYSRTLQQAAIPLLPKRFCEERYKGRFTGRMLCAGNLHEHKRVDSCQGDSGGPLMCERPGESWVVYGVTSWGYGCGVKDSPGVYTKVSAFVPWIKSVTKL
Description: Determination of IC50 for human neurotrypsin. The conditions noted are these: human neurotrypsin; method of WO 2006/1103261; read-out: Neurotrypsin IC50. In kind it is biochemical. As for the experimental part:
Assessment of the potency of compounds of examples 1-311 in inhibiting the enzymatic activity of human neurotrypsin was performed according to the method described in patent application WO 2006/1103261

In general, IC50 refers to the concentration that inhibits the measured activity by half. For `O=C(Nc1ccc(Cl)cc1)c1ccc(C(=O)O)c(NC(=O)c2cc(Br)cc(Br)c2O)c1` [Example 143, 4-(4-Chlorophenyl-carbamoyl)-2-(3,5-dibromo-2-hydroxybenzamido)benzoic acid], the concentration for half-maximal inhibition (IC50) is 3.9 µM.
In the case of `O=C(O)c1cc(C(=O)N2CCC(c3ccc(Cl)cc3)CC2)ccc1NC(=O)c1sc2ccccc2c1Cl` [Example 115] it was 3.1 µM; in that of `O=C(Nc1ccc(Cl)cc1F)c1ccc(C(=O)O)c(NC(=O)c2sc3ccccc3c2Cl)c1` [Example 5, 2-(3-Chlorobenzo[b]-thiophene-2-carboxamido)-4-(4-chloro-2-fluoro-phenyl-carbamoyl)benzoic acid], 1.9 µM.
For the molecule `O=C(Nc1ccccc1)c1ccc(NC(=O)c2ccc(-c3nc4cc(Cl)c(Cl)cc4[nH]3)cc2)c(C(=O)O)c1` [Example 138], the half-inhibitory concentration (IC50) turned out to be 6.6 µM.
In the case of `O=C(O)c1ccc(C#Cc2ccc(Cl)cc2)cc1NC(=O)c1sc2ccccc2c1Cl` [Example 248] it was more than 150 µM; in that of `O=C(Nc1ccc(Cl)cc1F)c1ccc(NC(=O)c2[nH]c3ccc(Cl)cc3c2-c2ccccc2)c(C(=O)O)c1` [Example 140], 0.9 µM.
Regarding `O=C(Nc1ccc(Cl)cc1)c1ccc(C(=O)O)c(NC(=O)c2cc3ccc(Cl)cc3s2)c1` [Example 23], the IC50 came to 2.6 µM.
To `Cn1c(-c2ccc(C(=O)Nc3cc(C(=O)Nc4ccc(Cl)cc4)c(OCC(=O)O)cc3C(=O)O)cc2)nc2cc(Cl)c(Cl)cc21` [Example 306] belongs 0.5 µM; to `O=C(Nc1ccc(Oc2ccccc2)cc1)c1ccc(C(=O)O)c(NC(=O)c2sc3ccccc3c2Cl)c1` [Example 64], 23.3 µM; to `O=C(Nc1ccc(Cl)cc1)c1cc(NC(=O)c2sc3ccccc3c2Cl)c(C(=O)O)cc1O` [Example 303], 5.5 µM.
In the case of `O=C(Nc1ncc(Cl)s1)c1ccc(C(=O)O)c(NC(=O)c2ccc(-c3ccccc3)s2)c1` [Example 62] it was 7.5 µM.
To `Cc1cccc(C)c1C1CCN(C(=O)c2ccc(NC(=O)c3sc4ccccc4c3Cl)c(C(=O)O)c2)CC1` [Example 121] belongs 4.9 µM; to `CC(C)(C)c1cccc(NC(=O)c2ccc(C(=O)O)c(NC(=O)c3sc4ccccc4c3Cl)c2)c1` [Example 75], 5.6 µM.
For `O=C(O)c1cc(C(=O)N2CCC(c3ccc(F)cc3)CC2)ccc1NC(=O)c1sc2ccccc2c1Cl` [Example 113], the IC50 was 2.7 µM.
Take `O=C(O)c1cc(C(=O)N2CCC(Cc3ccc(Cl)cc3)CC2)ccc1NC(=O)c1sc2ccccc2c1Cl` [Example 118, 2-(3-Chlorobenzo[b]-thiophene-2-carboxamido)-5-(4-(4-chlorobenzyl)piperidine-1-carbonyl)benzoic acid]: the 50% inhibitory concentration (IC50) stood at 2.2 µM.
As for `O=C(Nc1ccccc1F)c1ccc(NC(=O)c2ccc(-c3nc4cc(Cl)c(Cl)cc4[nH]3)cc2)c(C(=O)O)c1` [Example 48, 2-(4-(5,6-Dichloro-1H-benzo[d]imidazol-2-yl)-benzamido)-5-(2-fluoro-phenylcarbamoyl)benzoic acid], the half-inhibitory concentration (IC50) was found to be 3.4 µM.
`COc1ccc2c(Cl)c(C(=O)Nc3cc(C(=O)Nc4ccc(Cl)cc4)ccc3C(=O)O)sc2c1` [Example 142, 2-(3-Chloro-6-methoxy-benzo[b]thiophene-2-carbox)-4-(4-chlorophenylcarbamoyl)-benzoic acid]: the concentration for half-maximal inhibition (IC50) was 2.2 µM.
In the case of “4-(4-tert-Butoxyphenyl-carbamoyl)-3-(3-chloro-thiophene-2-carboxamido)-benzoic acid [Example 194]” it was 5.9 µM; in that of `O=C(O)c1ccc(-c2cn(-c3ccc(Cl)c(C(F)(F)F)c3)nn2)cc1NC(=O)c1sc2ccccc2c1Cl` [Example 261], 5.5 µM; in that of `Cn1c(-c2ccc(C(=O)Nc3ccc(C(=O)Nc4ccc(Cl)cc4)cc3C(=O)O)cc2)nc2cc(Cl)c(Cl)cc21` [Example 135], 0.9 µM.
To `O=C(Nc1ccc(C(=O)O)c(NC(=O)c2sc3ccccc3c2Cl)c1)c1ccc(Cl)s1` [Example 274] belongs 6.6 µM; to `O=C(O)c1cc(C(=O)N2CCC(c3ccc(Cl)cc3)C2)ccc1NC(=O)c1sc2ccccc2c1Cl` (stereo not shown) [Example 108], 3.9 µM; to `O=C(O)c1cc(C(=O)N2CCC(c3ccc(O)cc3)CC2)ccc1NC(=O)c1sc2ccccc2c1Cl` [Example 122], 9.4 µM.
Consider `O=C(Nc1ccc(C(=O)N2CCC(Cc3ccccc3)CC2)cc1C(=O)O)c1cc2ccc(Cl)cc2s1` [Example 158, 5-(4-Benzylpiperidine-1-carbonyl)-2-(6-chloro-benzo[b]thiophene-2-carboxamido)benzoic acid], for which the concentration for half-maximal inhibition (IC50) came to 3.8 µM.
With `O=C(O)c1cc(-c2cn(-c3ccc(Cl)cc3)nn2)ccc1NC(=O)c1sc2ccccc2c1Cl` [Example 263], the IC50 came out at 4 µM.
To `COc1ccc(CC2CCN(C(=O)c3ccc(NC(=O)c4sc5ccccc5c4Cl)c(C(=O)O)c3)CC2)cc1` [Example 117] belongs 2.9 µM.
For `CCOC(=O)CN(C(=O)c1ccc(C(=O)O)c(NC(=O)c2sc3ccccc3c2Cl)c1)c1ccc(Cl)cc1` [Example 156, 2-(3-Chlorobenzo[b]-thiophene-2-carboxamido)-4-(N-(4-chlorophenyl)-N-(ethoxycarbonylmethyl)-carbamoyl)benzoic acid], the IC50 turned out to be 4.7 µM.
In the case of `O=C(O)c1ccc(CN2CC(c3ccc(Cl)cc3)OC2=O)cc1NC(=O)c1sc2ccccc2c1Cl` (stereo not shown) [Example 301] it was 8.7 µM; in that of `O=C(NC12CC3CC(CC(C3)C1)C2)c1ccc(C(=O)O)c(NC(=O)c2sc3ccccc3c2Cl)c1` [Example 33, 2-(3-Chlorobenzo[b]-thiophene-2-carboxamido)-4-(adamantylcarbamoyl)-benzoic acid], 4.5 µM; in that of `O=C(Nc1ccc(C(=O)O)c(NC(=O)c2ccc(-c3ccccc3)s2)c1)c1ccc(Cl)s1` [Example 275], 3 µM.
To `O=C(Nc1ccc(Cl)cc1)Nc1ccc(C(=O)O)c(NC(=O)c2sc3ccccc3c2Cl)c1` [Example 276] belongs 6.3 µM.
In the case of `O=C(Nc1cc(NC(=O)c2sc3ccccc3c2Cl)ccc1C(=O)O)c1ccc(Cl)cc1` [Example 277] it was 3.5 µM; in that of `O=C(Nc1ccc(Cl)cc1)c1ccc(NC(=O)c2[nH]c3ccc(Cl)cc3c2-c2ccccc2)c(C(=O)O)c1` [Example 134], 1.9 µM.
On to `O=C(Nc1ccccn1)c1ccc(C(=O)O)c(NC(=O)c2sc3ccccc3c2Cl)c1` [Example 149, 2-(3-Chloro-benzo[b]-thiophene-2-carboxamido)-4-(pyridin-2-ylcarbamoyl)-benzoic acid], for which the half-maximal inhibitory concentration (IC50) stood at 16.5 µM.
In the case of `CC(C)CN(CC(C)C)C(=O)c1ccc(NC(=O)c2ccc(-c3nc4cc(Cl)c(Cl)cc4n3C)cc2)c(C(=O)O)c1` [Example 46, 2-(4-(5,6-Dichloro-1-methyl-1H-benzo[d]imidazol-2-yl)benzamido)-5-(diisobutyl-carbamoyl)benzoic acid] it was 3.4 µM; in that of `O=C(COc1ccc(NC(=O)c2ccc(-c3nc4cc(Cl)c(Cl)cc4[nH]3)cc2)c(C(=O)O)c1)Nc1ccc(Cl)cc1` [Example 311, 5-(4-Chlorophenylcarbamoylmethoxy)-2-(4-(5,6-dichloro-1H-benzo[d]imidazol-2-yl)benzamido)benzoic acid], 0.5 µM.
To `O=C(O)c1ccc(NC(=O)N2CCC(c3ccccc3)CC2)cc1NC(=O)c1sc2ccccc2c1Cl` [Example 279] belongs 5.4 µM; to `O=C(O)c1ccc(C(=O)N2CCCc3ccccc32)cc1NC(=O)c1sc2ccccc2c1Cl` [Example 97], 10.3 µM.
For `CC(NC(=O)c1ccc(NC(=O)c2ccc(-c3ccc(Cl)cc3)s2)c(C(=O)O)c1)c1ccc(Cl)cc1` (stereo not shown) [Example 110], the IC50 worked out at 3.4 µM.
To `N#Cc1ccc(-c2ccc(C(=O)O)c(NC(=O)c3sc4ccccc4c3Cl)c2)cc1` [Example 255] belongs 3.1 µM.
In the case of “5-(N-4-Butylphenyl-N-methyl-carbamoyl)-2-(4-(5,6-dichloro-1H-benzo[d]-imidazol-2-yl)benzamido)-benzoic acid [Example 44]” it was 1.6 µM.
To `O=C(Nc1ccc(C(=O)N2CCC(Cc3ccccc3)CC2)cc1C(=O)O)c1ccc(-c2ccc(Cl)cc2)s1` [Example 161, 5-(4-Benzylpiperidine-1-carbonyl)-2-(5-(4-chloro-phenyl)thiophene-2-carboxamido)benzoic acid] belongs 3 µM; to `O=C(O)c1ccc(NC(=O)c2ccc(Cl)s2)c(C(=O)Nc2ccc(Cl)cc2)c1` [Example 218, 3-(4-Chlorophenyl-carbamoyl)-4-(5-chloro-thiophene-2-carboxamido)-benzoic acid], 40.8 µM.

For the origin of these results see patent US20130261130A1, “NEUROTRYPSIN INHIBITORS” (priority 2010, published 2013).
